Here are results for 2 molecules from US10874637B2, “Methods and pharmaceutical compositions for the treatment of neurodegeneration with brain iron accumulation” (INSERM (Institut National de la Santé et de la Recherche …, priority 2016, dated 2020).

In one assay the test system is ferritin (FTH). Description: Western blot of ferritin (FTH) steady state levels in fibroblasts. Format: cell-based, human. Particulars: control and NBIA fibroblasts, artesunate treatment (25 μM, 48 h). Here is the method: Skin fibroblasts were isolated from patients 1-2 and from four NBIA patients carrying biallelic PANK2, PLA2G6, C19ORF12 and FA2H mutations (Supplementary Table 2). Fibroblasts were grown in DMEM (Life technologies) medium supplemented with 10% fetal beef serum (FBS), 2 mM L-glutamine, 2.5 mM pyruvate, 100 μg/ml streptomycin, 100 U/ml penicillin at 37° C. For treatment with ferric ammonium citrate (FAC), 90% confluent cells were incubated for 72 h with or without 100 μM FAC in serum-free DMEM (i.e. Tf free). HeLa cells were grown in the same medium. Cultured skin fibroblasts or HeLa cells were harvested on ice by scraping in reducing or non-reducing cell lysis buffer. SDS-PAGE was performed on whole-cell protein extracts. Immunodetections were performed in PBS with 5% milk, 0.05 Tween20 (SIGMA) using the following antibodies: rabbit anti-CRAT (HPA022815, Sigma), rabbit anti-ACOT8 (SAB4500009 SIGMA), mouse anti-REPS1 (ab69221), mouse anti-SOD1 (ab86454), mouse anti-TfR1 (Zymed 136890), rabbit anti-ferritin (ab75973), rabbit anti-IRP1 (ab126595), rabbit anti-IRP2 (ab80339), mouse anti-GRIM19 (ab110240), rabbit anti-catalase (ab16731), rabbit anti-FBXLS (ab140175), rabbit anti-LC3B (ab51520) and mouse anti-actin antibodies (ab8226). […]

A further assay has as its system TfR1. Description: TfR1 palmitoylation assay in cultured skin fibroblasts (fatty acyl exchange chemistry). Particulars: control and NBIA fibroblasts, 25 μM artesunate for 48 h. Format: cell-based, human. As to the method: Skin fibroblasts were isolated from patients 1-2 and from four NBIA patients carrying biallelic PANK2, PLA2G6, C19ORF12 and FA2H mutations (Supplementary Table 2). Fibroblasts were grown in DMEM (Life technologies) medium supplemented with 10% fetal beef serum (FBS), 2 mM L-glutamine, 2.5 mM pyruvate, 100 μg/ml streptomycin, 100 U/ml penicillin at 37° C. For treatment with ferric ammonium citrate (FAC), 90% confluent cells were incubated for 72 h with or without 100 μM FAC in serum-free DMEM (i.e. Tf free). HeLa cells were grown in the same medium. TfR1 palmitoylation in cultured skin fibroblasts was modified from^15. Briefly, cells were lysed on ice in a DTT-free cell lysis buffer and endogenous TfR1 was immunoprecipitated with mouse anti-TfR1 antibody (Zymed) with protein G magnetic beads (Biorad). After washing with PBS, beads were incubated overnight with 50 mM N-ethylmaleimide (NEM) at 4° C., washed 3 times with PBS and then incubated with 1 M hydroxylamine (HA) at room temperature for 2 hours. After three washes, the beads were incubated with 50 mM HPDP-Biotin (Thermo) in dark for 2 hours. Biotin-labeled TfR1 level was determined by immunoblotting in non-reducing conditions using a goat anti-biotin antibody (Thermo) while immunoblotting with rabbit anti-TfR1 antibody (Abcam) was used as loading control.

The next assay relates to liver and ovarian cancer. Particulars: via induction of TfR1 palmitoylation and reduction of its cell-surface levels; cited from earlier work.
A further assay relates to iron amount. The conditions noted are these: treatment increasing TfR1 palmitoylation; cited from earlier work.

Entries after “also recorded” stand apart in the source; their conditions may differ.

Regarding `C[C@H]1[C@H](OC(=O)CCC(=O)O)O[C@@H]2O[C@@]3(C)CC[C@H]4[C@H](C)CC[C@@H]1[C@@]24OO3` [artesunate, (3R,5aS,6R,8aS,9R,10S,12R,12aR)-Decahydro-3,6,9-trimethyl-3,12-epoxy-12H-pyrano [4,3-j]-1,2-benzodioxepin-10-ol, hydrogen succinate], the “ferritin (FTH) steady state levels (indicator of iron content)” value in the assay on ferritin (FTH) was “decreased ferritin steady state level”. The TfR1 palmitoylation result in the assay with TfR1 is “enhanced TfR1 palmitoylation; also recorded: improved TfR1 palmitoylation”. The “liver and ovarian cancer growth” value with liver and ovarian cancer is “inhibit liver and ovarian cancer growth”.
For the molecule dihydroartesunate, the iron amount result in the assay with iron amount is listed as “reduces iron amount”.
